Laboratory results as given in patent EP2510787A1, “Propenoates as fungicides” (Bayer CropScience AG, priority 2011, dated 2012).

Tested on: not listed separately
Assay: logP measurement by HPLC on reversed phase columns (EEC directive 79/831 Annex V.A8)
Assay type: physicochemical
Settings: pH 2.7, pH 2,7 with 0,1 % formic acid in water and acetonitrile, linear gradient 10 % to 95 % acetonitrile

`CCOC(=O)C(C#N)=C(SC(C)C(C)C)c1cccnc1Cl` (centres unmarked) [Example 1] and `CCCC(C)SC(=C(C#N)C(=O)OCC)c1cccnc1Cl` (centres unmarked) [Example 25] are within 0.2 log units of each other in chromatographic logP: 3.8 for the first, 3.78 for the second.

Compared with `CCOC(=O)C(C#N)=C(OC(C)C(CC)CC)c1cccnc1Cl` (centres unmarked) [Example 2], `CCOC(=O)C(C#N)=C(OC(C)C(C)C)c1cccnc1Cl` (centres unmarked) [Example 7] is lower in chromatographic logP: 3.96 for the first, 3.27 for the second.

`CCOC(=O)C(C#N)=C(SC(C)CC)c1cn(C)nc1C(F)F` (centres unmarked) [Example 3] and `CCOC(=O)C(C#N)=C(SC(C)C(C)C)c1cn(C)nc1C(F)F` (centres unmarked) [Example 19] are within 0.2 log units of each other in chromatographic logP: 3.11 for the first, 3.3 for the second.

Going from `CCOC(=O)C(C#N)=C(OC(C)CC(C)(C)C)c1cccnc1Cl` (centres unmarked) [Example 4] to `CCOC(=O)C(C#N)=C(OC(C)C(C)(C)C)c1cccnc1Cl` (centres unmarked) [Example 5], the chromatographic logP falls from 3.92 to 3.57.

Going from `CCOC(=O)C(C#N)=C(SC(C)C(C)C)c1ccnn1C(F)F` (centres unmarked) [Example 6] to `CCOC(=O)C(C#N)=C(OC(C)C(C)C)c1ccnn1C(F)F` (centres unmarked) [Example 15], the chromatographic logP falls from 3.59 to 3.25.

`CCOC(=O)C(C#N)=C(OC(C)COC)c1cccnc1Cl` (centres unmarked) [Example 8] and `C#CCC(C)OC(=C(C#N)C(=O)OCC)c1cccnc1Cl` (centres unmarked) [Example 10] are within 0.2 log units of each other in chromatographic logP: 2.44 for the first, 2.61 for the second.

Going from `CCOC(=O)C(C#N)=C(OC(C)C1=NOCCO1)c1cccnc1Cl` (centres unmarked) [Example 9] to `CCOC(=O)C(C#N)=C(O[C@@H](C)C(=O)OC)c1cccnc1Cl` [Example 20], the chromatographic logP rises from 2.2 to 2.4.

Going from `CCOC(=O)C(C#N)=C(OC(C)c1ccc(Cl)nc1)c1cccnc1Cl` (centres unmarked) [Example 11] to `CCOC(=O)C(C#N)=C(OC(C)c1ccccn1)c1cccnc1Cl` (centres unmarked) [Example 23], the chromatographic logP falls from 2.9 to 2.39.

Going from `CCOC(=O)C(C#N)=C(OC(C)C(C)C)c1cn(C)nc1C(F)F` (centres unmarked) [Example 12] to `CCOC(=O)C(C#N)=C(OC(C)C(C)C)c1scnc1Cl` (centres unmarked) [Example 16], the chromatographic logP rises from 2.98 to 3.37.

`CCOC(=O)C(C#N)=C(O[C@H](C)C(=O)OCC)c1cccnc1Cl` [Example 13] and `CCOC(=O)C(C#N)=C(OC1(C(=O)OCC)CC1)c1cccnc1Cl` [Example 24] are within 0.2 log units of each other in chromatographic logP: 2.71 for the first, 2.9 for the second.

First: CCOC(=O)C(C#N)=C(SC(C)c1ccccn1)c1cccnc1Cl (centres unmarked) [Example 17]
Second: CCOC(=O)C(C#N)=C(OC(C)C=C(Cl)Cl)c1cccnc1Cl (centres unmarked) [Example 26]
The chromatographic logP of the first is lower: 2.51 for the first, 3.33 for the second.

`CCOC(=O)C(C#N)=C(OC1CCCCC1C)c1cccnc1Cl` (centres unmarked) [Example 21] and `CCOC(=O)C(C#N)=C(SC(C)C(C)C)c1scnc1Cl` (centres unmarked) [Example 22] are within 0.2 log units of each other in chromatographic logP: 3.74 for the first, 3.79 for the second.

Tested on: Plasmopara viticola
Assay: Plasmopara test (grapevines) / preventive
Assay type: in vivo
Settings: preventive spray, 100 ppm of active ingredient, evaluated 6 days after the inoculation, 100 % = no disease
Protocol: Plasmopara test (grapevines) / preventive
To produce a suitable preparation of active compound, 1 part by weight of active compound is mixed with the stated amounts of solvent and emulsifier, and the concentrate is diluted with water to the desired concentration.
To test for preventive activity, young plants are sprayed with the preparation of active compound at the stated rate of application. After the spray coating has dried on, the plants are inoculated with an aqueous spore suspension of Plasmopara viticola and then remain for 1 day in an incubation cabinet at approximately 20°C and a relative atmospheric humidity of 100 %. The plant is subsequently placed for 4 days in a greenhouse at approximately 21°C and a relative atmospheric humidity of approximately 90 %. The plants are then misted and placed for 1 day in an incubation cabinet.
The test is evaluated 6 days after the inoculation. 0 % means an efficacy which corresponds to that of the untreated control, while an efficacy of 100 % means that no disease is observed.

Compared with `CCOC(=O)C(C#N)=C(SC(C)C(C)C)c1cccnc1Cl` (centres unmarked) [Example 1], `CCOC(=O)C(C#N)=C(SC(C)C(C)C)c1cn(C)nc1C(F)F` (centres unmarked) [Example 19] is higher in Efficacy in %: 88% for the first, 92% for the second.
